Values of other authors as cited in patent US6350369B1, “Method and system for determining analyte activity” (California Institute of Technology, priority 1998, dated 2002).

Tested on: cytochrome P-450
Conditions: cytochrome P-450 aniline p-hydroxylation inhibition, in words

## OCc1ccccc1 [benzyl alcohol]
  inhibitory activity compared with QSAR prediction: higher activity than is predicted
